# Molecular target: T1, SepSecS (Homo sapiens, UniProt Q9HD40)
# T1 sequence (Q9HD40 1-501): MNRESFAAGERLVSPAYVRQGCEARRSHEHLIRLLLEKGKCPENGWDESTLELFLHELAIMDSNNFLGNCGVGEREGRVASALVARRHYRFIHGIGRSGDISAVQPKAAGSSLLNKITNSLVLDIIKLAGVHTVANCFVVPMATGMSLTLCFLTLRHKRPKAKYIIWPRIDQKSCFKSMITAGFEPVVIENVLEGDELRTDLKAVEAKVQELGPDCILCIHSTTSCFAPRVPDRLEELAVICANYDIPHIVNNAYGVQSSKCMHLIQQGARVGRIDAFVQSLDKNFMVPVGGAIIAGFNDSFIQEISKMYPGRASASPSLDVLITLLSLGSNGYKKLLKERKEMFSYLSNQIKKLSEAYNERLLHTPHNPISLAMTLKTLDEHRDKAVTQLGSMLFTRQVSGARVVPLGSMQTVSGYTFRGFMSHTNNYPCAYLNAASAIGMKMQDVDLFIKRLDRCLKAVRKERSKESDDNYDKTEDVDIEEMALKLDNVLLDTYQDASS
# Assay: X-ray crystallography, […] A
# Format: binding
# Conditions: covalent; Schiff base (internal aldimine) with Lys284
smiles,measurement,value
"Cc1ncc(COP(=O)(O)O)c(C=O)c1O [PLP, pyridoxal phosphate]","X-ray crystallography, 2.8 A",Each SepSecS monomer has a PLP cofactor covalently linked to the Nε-amino group
